Assay results taken from article PMC10034449, “FDA-approved Abl/EGFR/PDGFR kinase inhibitors show potent efficacy against pandemic and seasonal influenza A virus infections of human lung explants” (iScience, 2023).
“And” between values parts separate entries of the source, which are not always exact repeats. Identical values can stand only once.

Experiments:
NL09 or NL11 [1] = assay type: cell-based, influenza A virus
[2] = system: A/Netherlands/602/09 (H1N1) replication complex (PB2, PB1, PA, NP); assay type: cell-based, influenza A virus
NL09 or NL11 [3] = assay type: cell-based, influenza A virus; remark: listed apart in the source
[4] = system: NL11 viral polymerase activity; assay type: cell-based, influenza A virus
[5] = system: NL09 viral polymerase activity; assay type: cell-based, influenza A virus
[6] = system: human precision-cut lung slices (hPCLS); assay: Ex vivo cytotoxicity in hPCLS (LDH-Glo, LDH release); conditions: 10xmax: DF 50 μM, BO 50 μM, SA 1.25 μM, up to 144 h
NFkBpS536 (NFkB p65) = assay type: cell-based, human
[7] = system: A/NL/213/03 (H3N2) replication complex (PB2, PB1, PA, NP); assay type: cell-based, influenza A virus
PDGFRα vs PDGFRβ = system: PDGFRα vs PDGFRβ; set-up: method as in PMID 19922818; conditions: cited from earlier work
PAK3 = conditions: 0.48 μM; cited from earlier work

Row | Compound | effect on viral entry / virion localization (NL09 or NL11 [1]) | % Luminescence (relative to untreated / normalized to GFP) [2] | significance of titer reduction over the infection (NL09 or NL11 [3]) | % Luminescence (relative to untreated / normalized to GFP) [4] | viral titer reduction (NL09 or NL11 [3]) | other results
1 | CC#CC(=O)N1CCC[C@H]1c1nc(-c2ccc(C(=O)Nc3ccccn3)cc2)c2c(N)nccn12 [AC, Acalabrutinib] | No significant changes were detectable | 82% | only significant at 24 and 48 hpi | 67% |  | 
2 | COc1cc(Nc2c(C#N)cnc3cc(OCCCN4CCN(C)CC4)c(OC)cc23)c(Cl)cc1Cl [BO, Bosutinib] | no virus was detected |  | significant throughout the infections |  |  | F-actin network (NL09 or NL11 [1]): not detectable
3 | CNC(=O)c1ccc(Nc2ncc(C(F)(F)F)c(NCc3nccnc3N(C)S(C)(=O)=O)n2)cc1 [DF, Defactinib] | significant retention at the membrane and cell periphery |  | only significant at 24 and 48 hpi |  | at least 10 fold | reduction of polymerase reporter activity [5]: 20%; cytotoxicity (LDH release) relative to positive control [6]: > 20%; NFkB p65 phosphorylation, pNFkB p65 / panNFkB p65 ratio (rel. to untreated) (NFkBpS536 (NFkB p65)): 64% and 68%; reduction of polymerase reporter activity [4]: 13%
4 | C=CC(=O)N1CCC[C@@H](n2nc(-c3ccc(Oc4ccccc4)cc3)c3c(N)ncnc32)C1 [IB, Ibrutinib] | significant retention at the membrane and cell periphery |  | significant throughout the infections |  | more than 1,000 fold | 
5 | Cc1cn(-c2cc(NC(=O)c3ccc(C)c(Nc4nccc(-c5cccnc5)n4)c3)cc(C(F)(F)F)c2)cn1 [NI, Nilotinib] | No significant changes were detectable | 73% and 61% | significant throughout the infections | 62% and 45% | more than 1,000 fold | % Luminescence (relative to untreated / normalized to GFP) [5]: 50%; % Luminescence (relative to untreated / normalized to GFP) [7]: 71% and 64%; selectivity for PDGFRα than PDGFRβ (PDGFRα vs PDGFRβ): > 25 fold
6 | CN1CCN(CCOc2cc(OC3CCOCC3)c3c(Nc4c(Cl)ccc5c4OCO5)ncnc3c2)CC1 [SA, Saracatinib] | No significant changes were detectable | 68% |  | 53% |  | cytotoxicity (LDH release) relative to positive control [6]: > 20%; % Luminescence (relative to untreated / normalized to GFP) [7]: 66%
7 | CCN(CC)CCNC(=O)c1c(C)[nH]c(/C=C2\C(=O)Nc3ccc(F)cc32)c1C [sunitinib] |  |  |  |  |  | effect on PAK3 activity (PAK3): not even a 30-fold higher concentration (0.48 μM) has an effect
8 | poly(IC) |  |  |  |  |  | induction of NFkBpS536 (NFkBpS536 (NFkB p65)): induced NFkBpS536
